In US4125605A, “Method of employing oral TRH” (The United States Government, priority 1977, dated 1978):

What was measured:
[1] = system: nursing women between the 5th and 35 postpartum days; type: in vivo, human; settings: 5 mg TRH oral single dose
Description: To test the efficacy of TRH, six nursing women between the 5th and 35 postpartum days were studied. Each received one 5 mg capsule of TRH in the early morning after an overnight fast. Six nursing women matched for postpartum interval received a placebo of lactose sugar. Blood samples were drawn from an indwelling catheter in an antecubital vein at -5,0,30,60,120, and 180 min.
A set of specific radioimmunoassays were employed for the measurement of plasma hormones. PRL was measured by a modification of the radioimmunoassay of Hwang et al., Proc. Nat. Acad. Sci., 68:1902 (1971) using the iodination technique of Greenwood et al., Biochem J., 89:114 (1963). Plasma LH and FSH were measured by using a modification of the double antibody radioimmunoassay of Midgely, Endocrinology, 79:10 (1966). Thyrotropin (TSH) was determined by a double antibody radioimmunoassay of Odell, Rayford and Ross, J. Lab. Clin. Med., 70:973 (1967). Plasma thyroxine (T4) by column was measured by the method of Pileggi and Kessler, Clin. Chem., 14:339 (1968). A modification of the immunoassay of Roth et al., Science, 140:987 (1963), was used to measure plasma growth hormone (GH) utilizing the iodination technique for prolactin. Antibody bound radioactivity was separated by the dextran-charcoal method of Herbert et al., J. Clin. Endocrinol. Metab., 25:1375 (1965). […]

[2] = system: women practicing full nursing; type: in vivo, human
Description: (§1) Sixty women volunteered for this major study and each was instructed to practice full nursing for at least 90 postpartum days. Fifty percent of the women were dropped from the study before the end of the first postpartum month due to changes in nursing patterns. The remaining 30 women were randomly divided into TRH and control groups. TRH, 5 mg or a lactose placebo, was administered daily at 0800 and 2000 h for 30 days beginning on day 29 postpartum. Blood and milk samples were obtained on the first postpartum day and at weekly intervals between 1500 and 1600 h. Thus, blood samples were never obtained sooner than 7 h after the ingestion of TRH. Each women's nursing pattern was recorded by nurse-midwives. Charts of infant growth and development were plotted weekly.
(§2) With regard to sampling procedures, individual blood samples were collected in heparinized vacuum tubes. Neither nursing nor maternal food intake had occurred in the previous 3 h. The sampling procedure in Examples II and III consisted of placing the patient at rest for a minimum of 15 min after which blood was drawn from an antecubital vein. Blood samples were centrifuged and plasma was removed and stored at -20C. Samples originating outside the continental United States were delivered to the laboratory at quarterly intervals in dry ice by special messenger.
(§3) In Examples II and III, milk was obtained from each breast following blood sampling and immediately prior to nursing. The women were instructed to grasp first the right and then the left breast, kneading it gently toward the nipple. Thus, 10 ml or more of the fore milk was removed with ease through each nipple and combined in a sterile container. The sample was thoroughly mixed by vigorous shaking. A compressed tablet of mercuric chloride and potassium dichromate was then added as a preservative to each sample before storing.
(§4) A set of specific radioimmunoassays were employed for the measurement of plasma hormones. PRL was measured by a modification of the radioimmunoassay of Hwang et al., Proc. Nat. Acad. Sci., 68:1902 (1971) using the iodination technique of Greenwood et al., Biochem J., 89:114 (1963). Plasma LH and FSH were measured by using a modification of the double antibody radioimmunoassay of Midgely, Endocrinology, 79:10 (1966). Thyrotropin (TSH) was determined by a double antibody radioimmunoassay of Odell, Rayford and Ross, J. Lab. Clin. Med., 70:973 (1967). Plasma thyroxine (T4) by column was measured by the method of Pileggi and Kessler, Clin. Chem., 14:339 (1968). A modification of the immunoassay of Roth et al., Science, 140:987 (1963), was used to measure plasma growth hormone (GH) utilizing the iodination technique for prolactin. Antibody bound radioactivity was separated by the dextran-charcoal method of Herbert et al., J. Clin. Endocrinol. Metab., 25:1375 (1965). Each of the references mentioned in this paragraph is incorporated herein by reference.
For the analysis of milk composition, samples were thawed and held at room temperature for no more than 30 min. Aliquots were analyzed for percent fat, protein and lactose concentrations using the infrared milk analyzer (IRMA). Samples less than 30 ml in volume (about 10% of the total) were diluted up to 35 ml with distilled water. These were then homogenized with a Biosonic Model 3 Ultrasonicater (Bronwill Scientific Co., Rochester, N.Y.) at an exposed intensity of 70 vibrations per second for 30 sec. These samples were stored overnight at 4° C. and then analyzed for composition. […]

[3] = system: infants of TRH-treated mothers; parameters: species or system human; settings: in vivo, po
Description: as §1, with “Charts of infant growth and development were plotted weekly.” left out
A set of specific radioimmunoassays were employed for the measurement of plasma hormones. PRL was measured by a modification of the radioimmunoassay of Hwang et al., Proc. Nat. […] Plasma LH and FSH were measured by using a modification of the double antibody radioimmunoassay of Midgely, Endocrinology, 79:10 (1966). Thyrotropin (TSH) was determined by a double antibody radioimmunoassay of Odell, Rayford and Ross, J. Lab. […] Plasma thyroxine (T4) by column was measured by the method of Pileggi and Kessler, Clin. Chem., 14:339 (1968). […] Antibody bound radioactivity was separated by the dextran-charcoal method of Herbert et al., J. Clin. Endocrinol. […]

[4] = system: women with lactational insufficiency practicing partial nursing; experiment: Example III: oral TRH 5 mg or 20 mg twice a day for 5 days in women with lactational insufficiency; type: in vivo, human
Description: A group of 13 women with lactational insufficiency practicing partial nursing between 13-71 postpartum days were next studied. Four received TRH 5 mg and nine received 20 mg twice a day at 0800 and 2000 h for 5 days. Blood samples were obtained prior to the first capsule and daily thereafter for 5 days before taking the morning dose of TRH. Daily milk samples were also collected.
as §2, §3, §4
For the analysis of milk composition, samples were thawed and held at room temperature for no more than 30 min. Aliquots were analyzed for percent fat, protein and lactose concentrations using the infrared milk analyzer (IRMA). Samples less than 30 ml in volume (about 10% of the total) were diluted up to 35 ml with distilled water. These were then homogenized with a Biosonic Model 3 Ultrasonicater (Bronwill Scientific Co., Rochester, N.Y.) at an exposed intensity of 70 vibrations per second for 30 sec. These samples were stored overnight at 4° C. and then analyzed for composition. Corrections were made for any dilution.

[5] = system: women with insufficient lactation; parameters: species or system human; settings: in vivo
Description: as §4
As an experimental exercise, two women with insufficient lactation gave consent for the administration of 40 mg of oral TRH twice a day or the same time schedule as noted above. On the 7th day of therapy the patients were reevaluated and found to have lost weight. Their pulse rate was elevated as was their blood pressure. […]

surrogate mothers = experiment: Induction of lactation in surrogate (adoptive) mothers with conjugated estrogens plus oral TRH; type: in vivo, human
From the text: An additional use of TRH is in surrogate mothers. Studies in accordance with the present invention have involved the administration of TRH to adoptive mothers. In most instances, such women have undergone voluntary sterilization following the birth of natural children but, for one reason or another, wish to have another child. By the present invention, lactation has been induced in such women for the benefit of their adopted child by attempting to simulate the effects of pregnancy on prolactin secretion and, at the same time, by requesting that the […] practice auto-stimulation of the nipple. The technique of stimulation is as follows: Women are treated with 5 to 10 mg of conjugated estrogens equine twice a day for 14 days. Caution with regard to the possibility of side effects is given to each woman based upon the known effects of such estrogens on the vascular system. Beginning on the 7th day of estrogen treatment, oral TRH 5-10 mg twice a day, at intervals of about 12 hours, is administered for the final 7 days of treatment with estrogen. At the end of the 14th estrogen-treatment day, TRH is continued while the frequency of nipple stimulation is increased from four times daily to every 4 hours. In the women studied thus far, milk production can be induced within 72 hours following the withdrawal of the estrogen. […]

[6] = system: puerperally lactating mothers; experiment: Reestablishment of lactation in puerperally lactating mothers after emergency surgery; type: in vivo, human; settings: mothers separated from child by emergency surgery; with coincident sucking
From the text: The administration of TRH may also be initiated in puerperally lactating mothers who have to undergo emergency surgery such as polycystectomy, apendectomy, or the repair of fractures. Such surgery usually takes the mother away from the child for periods of time up to 14 days and a mother who is desirous of breastfeeding may find great difficulty in reestablishing lactation when she returns home from the hospital. In such cases, the administration of TRH has been associated with the reestablishment of lactation within 48 hours. It is to be emphasized that such lactation cannot be firmly established without coincident sucking of the nipple by the child.

postpartum women = experiment: Low-dose TRH in postpartum women: prolactin versus thyrotropin response; type: in vivo, human
[7] = 20 mg dosage capsules three times a day, oral; cited from earlier work
[8] = 5 mg TRH every 12 h for 5 days, four women
[9] = 20 mg twice daily, Day 1 (before initial ingestion)

NC(=O)[C@@H]1CCCN1C(=O)[C@H](Cc1cnc[nH]1)NC(=O)[C@@H]1CCC(=O)N1 [TRH, thyrotropin releasing hormone]
mean maximal PRL increment ([1]; at 60 min, six nursing mothers): 46.3 ng/mL | peripheral PRL throughout the sampling period ([1]; sampling to 180 min): remained elevated | weekly 1500 h maternal PRL concentration ([2]; 5 mg TRH twice daily for 30 days, full nursing): not associated with any significant change | milk composition (percent of fat and protein concentration) ([2]; TRH versus control group, full nursing): did not differ significantly | bleeding patterns (postovulatory vaginal bleeding) ([2]; beyond the 14th postpartum week, TRH-treated versus placebo-treated mothers): no difference | T4 values ([2]; in vivo): normal | gonadotropin levels ([2]; measured weekly, TRH versus controls): identical in controls | infant plasma growth hormone [3]: 32.2 ± 4.9 ng/mL | infant plasma prolactin [3]: 200.3 ± 19.2 ng/mL | increase in the PRL concentration [4, 8]: 50% | milk production and letdown [4, 8]: increased | % Milk fat, Mean ± SE [4, 9]: 2.99±0.4% | % Milk protein, Mean ± SE [4, 9]: 1.81±0.2% | Plasma PRL, Mean ± SE ([4]; 20 mg twice daily, Day 1 (before initial ingestion), nine women): 27.8 ± 5.3 ng/mL | % Milk fat, Mean ± SE ([4]; 20 mg twice daily, Day 2, NS): 3.88±0.6% | % Milk protein, Mean ± SE ([4]; 20 mg twice daily, Day 2, NS): 1.63±0.2% | Plasma PRL, Mean ± SE ([4]; 20 mg twice daily, Day 2, P .0005 vs day 1): 53.1 ± 8.7 ng/mL | % Milk fat, Mean ± SE ([4]; 20 mg twice daily, Day 3, NS): 3.21± 0.4% | % Milk protein, Mean ± SE ([4]; 20 mg twice daily, Day 3, NS): 1.61± 0.1% | Plasma PRL, Mean ± SE ([4]; 20 mg twice daily, Day 3, P .005 vs day 1): 73.3 ± 12.4 ng/mL | % Milk fat, Mean ± SE ([4]; 20 mg twice daily, Day 4, NS): 3.79±0.4% | % Milk protein, Mean ± SE ([4]; 20 mg twice daily, Day 4, NS): 1.62±0.1% | Plasma PRL, Mean ± SE ([4]; 20 mg twice daily, Day 4, NS vs day 1): 44.1 ± 7.0 ng/mL | % Milk fat, Mean ± SE ([4]; 20 mg twice daily, Day 5, NS): 3.02±0.2% | % Milk protein, Mean ± SE ([4]; 20 mg twice daily, Day 5, NS): 1.60±0.1% | Plasma PRL, Mean ± SE ([4]; 20 mg twice daily, Day 5, NS vs day 1): 54.8 ± 13.9 ng/mL | mean percent fat composition of milk, greater than pretreatment ([4]; 20 mg twice daily, day two of treatment, difference not significant): ~1% | percent of lactose concentration in milk ([4]; milk samples obtained from all studies): remained constant | return to full nursing ([4]; partially nursing women after TRH ingestion): all were able to return to full nursing | breast engorgement and milk letdown ([4]; reported by each woman as a result of TRH ingestion): subjective and objective increases | reevaluation after discontinuation [5]: no clinical or laboratory evidence of hyperthyroidism | time to induction of milk production following the withdrawal of the estrogen (surrogate mothers; conjugated estrogens equine 5 to 10 mg twice a day 14 days, oral TRH 5-10 mg twice a day from 7th day, nipple stimulation): ≤ 72 h | basal plasma prolactin concentration (surrogate mothers; conjugated estrogens equine then oral TRH 5-10 mg twice a day, surrogate mothers): increase | time to reestablishment of lactation [6]: ≤ 48 h | dose for maximum prolactin response, times lower than dose for threshold thyrotropin secretion (postpartum women): 5 to 10 times | instances in which peripheral prolactin concentration is elevated (postpartum women; TRH in low doses): 95% | effect on the yield or composition of milk [7]: no significant effect
